Drawing on PubChem BioAssay (NCI), this text covers TGI and GI50 for eight molecules.

Among the test systems are 786-0 renal; A549 NSCLC; HCC-2998 colon; HOP-92 NSCLC; KM12 colon; NCI-H460 lung; OVCAR-8 ovarian; RPMI-8226 leukemia; UACC-62 melanoma; UO-31 renal.
What all share (assay): NCI tumour cell line growth inhibition, 48 h

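In this assay, cells in 96-well plates receive the compound at five concentrations for 48 hours. Endpoints are linearly interpolated between the surrounding concentrations. GI50 = concentration required for 50% inhibition of growth. Definition used: TGI = concentration required for complete inhibition of growth.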

As for `NC(=NCc1ccccc1)N/N=C\c1ccnc2ccccc12`, the TGI worked out at 29.9 µM in the experiment on 786-0 renal; 36.9 µM in the experiment with A549 NSCLC; 4.51 µM with HCC-2998 colon; 7.86 µM in the experiment with HOP-92 NSCLC; 47.9 µM with KM12 colon; 31 µM in the experiment on NCI-H460 lung. The TGI amounted to 29.9 µM with OVCAR-8 ovarian, 4.14 µM in the experiment on RPMI-8226 leukemia, 29.4 µM with UACC-62 melanoma and 22.1 µM in the experiment on UO-31 renal.
As for `c1ccc(COc2ccc(Nc3ncnc4ccc(-c5ccco5)cc34)cc2)cc1`, the GI50 with 786-0 renal is 4.91 µM; in the experiment with A549 NSCLC, 6.83 µM; in the experiment on HCC-2998 colon it was 10.6 µM; in the experiment on HOP-92 NSCLC, 0.379 µM; with KM12 colon it was 6.09 µM; in the experiment on NCI-H460 lung, 2.84 µM. Besides, the GI50 with OVCAR-8 ovarian is 11.3 µM; in the experiment with RPMI-8226 leukemia, 5.5 µM; in the experiment on UACC-62 melanoma, 5.75 µM; with UO-31 renal it was 4.76 µM. The TGI in the experiment with 786-0 renal is 12.9 µM; in the experiment on A549 NSCLC, greater than 25 µM; in the experiment on HCC-2998 colon, greater than 25 µM; in the experiment on HOP-92 NSCLC it was 7.21 µM; in the experiment with KM12 colon it was 14.7 µM; in the experiment on NCI-H460 lung, greater than 25 µM. Also, the TGI in the experiment with OVCAR-8 ovarian is greater than 25 µM; in the experiment on RPMI-8226 leukemia, 20.2 µM; in the experiment with UACC-62 melanoma, 14.3 µM; in the experiment with UO-31 renal, greater than 22.1 µM.
With `OCCC#Cc1ccccc1C#Cc1ccccc1`, the GI50 in the experiment with 786-0 renal was 16.1 µM; with A549 NSCLC, 36.3 µM; in the experiment with HCC-2998 colon, 19.1 µM; in the experiment with HOP-92 NSCLC, 3.48 µM; in the experiment on KM12 colon it was 7.18 µM; in the experiment with NCI-H460 lung, 21.5 µM. Besides, the GI50 was 30.4 µM with OVCAR-8 ovarian, 12.4 µM in the experiment on RPMI-8226 leukemia, 11.9 µM in the experiment with UACC-62 melanoma and 34.3 µM with UO-31 renal. The TGI with 786-0 renal amounted to 31.3 µM; with A549 NSCLC it was 83.2 µM; in the experiment on HCC-2998 colon, 45 µM; with HOP-92 NSCLC, 16.7 µM; in the experiment on KM12 colon, 17.2 µM; with NCI-H460 lung it was 50.7 µM. Further, the TGI with OVCAR-8 ovarian was 66.9 µM; with RPMI-8226 leukemia, 41.8 µM; with UACC-62 melanoma, 24.4 µM; with UO-31 renal it was greater than 100 µM.
As for `Cn1cc(-c2ccc3c(c2)ncn3-c2ccc(CC(=O)Nc3cc(C(C)(C)C)on3)cc2)cn1`, the GI50 in the experiment on 786-0 renal was 1.48 µM; with A549 NSCLC, 1.49 µM; with HCC-2998 colon, 8.04 µM; in the experiment with HOP-92 NSCLC, 0.227 µM; in the experiment on NCI-H460 lung, 2.45 µM; with OVCAR-8 ovarian, 3.16 µM. Further, the GI50 with RPMI-8226 leukemia is 3.35 µM; with UACC-62 melanoma, 1.53 µM; with UO-31 renal, 0.224 µM. For the same molecule, the TGI with 786-0 renal is greater than 84.6 µM; in the experiment with A549 NSCLC, 8.76 µM; in the experiment with HCC-2998 colon, greater than 100 µM; in the experiment with HOP-92 NSCLC it was 1.42 µM; in the experiment with KM12 colon, 14.3 µM; in the experiment with NCI-H460 lung, greater than 37.7 µM. Moreover, the TGI in the experiment on OVCAR-8 ovarian was greater than 43.3 µM; in the experiment with RPMI-8226 leukemia, greater than 100 µM; with UACC-62 melanoma it was 11.6 µM; in the experiment with UO-31 renal, 2.2 µM.
Turning to `CC/C(=C(/CC)c1ccc(OP(=O)([O-])[O-])cc1)c1ccc(OP(=O)([O-])[O-])cc1.N.N.N.N.[Pt+4].[Pt+4]`, the GI50 in the experiment on 786-0 renal is 4.77 µM; with A549 NSCLC, 2.45 µM; in the experiment with HCC-2998 colon it was 11.6 µM; with HOP-92 NSCLC, 3.43 µM; in the experiment on KM12 colon, 22 µM; in the experiment with NCI-H460 lung, 0.933 µM. Also, the GI50 in the experiment with OVCAR-8 ovarian was 4.71 µM; in the experiment on RPMI-8226 leukemia, 4.19 µM; in the experiment on UACC-62 melanoma it was 0.901 µM; in the experiment on UO-31 renal it was 4.3 µM. Moreover, the TGI with 786-0 renal is greater than 100 µM; in the experiment with A549 NSCLC, 8.43 µM; in the experiment with HCC-2998 colon it was 24 µM; with HOP-92 NSCLC it was 8.93 µM; in the experiment with KM12 colon, greater than 100 µM; with NCI-H460 lung, 7.62 µM. In addition, the TGI is greater than 100 µM with OVCAR-8 ovarian, greater than 100 µM in the experiment with RPMI-8226 leukemia, 5.15 µM in the experiment on UACC-62 melanoma and 25.4 µM in the experiment with UO-31 renal.
`Nc1cc2c3c(cccc3c1)C(=O)N(CCN1CCN(CCN3C(=O)c4cccc5cc(N)cc(c45)C3=O)CC1)C2=O`: the TGI in the experiment on 786-0 renal, with A549 NSCLC, in the experiment with HCC-2998 colon, in the experiment on HOP-92 NSCLC, with KM12 colon and in the experiment on NCI-H460 lung was greater than 100 µM in each case. The TGI with OVCAR-8 ovarian, with RPMI-8226 leukemia, in the experiment on UACC-62 melanoma and with UO-31 renal was greater than 100 µM in each case.
On to `COC(=O)C12C3C=CC(O3)C1C1C=CC2O1` (stereo not drawn), for which the TGI in the experiment with 786-0 renal, in the experiment on A549 NSCLC, with HCC-2998 colon, in the experiment with HOP-92 NSCLC, with KM12 colon and in the experiment on NCI-H460 lung was greater than 100 µM in each case. For the same molecule, the TGI in the experiment with OVCAR-8 ovarian, in the experiment on RPMI-8226 leukemia and in the experiment with UO-31 renal was greater than 100 µM in each case.
In the case of `CCN1C(=O)N(CC)C2C1NN=c1s/c(=C\c3ccc([N+](=O)[O-])cc3)c(=O)n12` (stereo not drawn), the GI50 was 0.621 µM with 786-0 renal; 0.681 µM with A549 NSCLC; 1.61 µM with HCC-2998 colon; 2.19 µM with HOP-92 NSCLC; 0.342 µM in the experiment on KM12 colon; 0.369 µM with NCI-H460 lung. In addition, the GI50 in the experiment on OVCAR-8 ovarian was 0.885 µM; with RPMI-8226 leukemia, 0.449 µM; with UACC-62 melanoma, 0.5 µM; with UO-31 renal, 0.903 µM. For the same molecule, the TGI with 786-0 renal, with A549 NSCLC, with HCC-2998 colon, in the experiment on HOP-92 NSCLC, in the experiment on KM12 colon and in the experiment on NCI-H460 lung was greater than 100 µM in each case. Besides, the TGI in the experiment on OVCAR-8 ovarian is greater than 91.1 µM; with RPMI-8226 leukemia it was greater than 38.9 µM; in the experiment on UACC-62 melanoma it was greater than 100 µM; with UO-31 renal, greater than 100 µM.
